From ChEMBL document CHEMBL5321235, “Design, synthesis, and SAR study of novel flavone 1,2,4-oxadiazole derivatives with anti-inflammatory activities for the treatment of Parkinson's disease” (Eur J Med Chem, 2023)
Calls of active or inactive are those of the source. The calls are words filed in the database; no cut-off is given here.

Assays:
[1] = system: BV-2; experiment: Inhibition of LPS-induced ROS production in mouse BV-2 cells at 5 uM pretreated for 18 hrs followed by LPS-stimulation and measured after 6 hrs by fluorescence microscopic analysis; type: functional, cell-based; conditions: time 24.0 hrs
[2] = system: BV-2; experiment: Antiinflammatory activity in mouse BV-2 cells assessed as inhibition of LPS-induced NO production at 5 uM pretreated for 18 hrs followed by LPS-induction and measured after 6 hrs relative to control; type: functional; set-up: scale not given: the % may be the effect or the level left; conditions: time 24 hrs
[3] = system: BV-2; experiment: Cytotoxicity against mouse BV-2 cells assessed as reduction in cell viability at 5 uM pretreated for 18 hrs followed by LPS-stimulation and measured after 6 hrs by MTT assay; type: toxicity, cell-based; conditions: bv-2, 24 h

`Cc1c(-c2ccccc2)oc2c(-c3nc(-c4ccsc4)no3)cccc2c1=O` was tested, and the inhibition [1] was “Active”.
With `Cc1ccc(-c2noc(-c3ccc(F)c(F)c3)n2)cn1` the inhibition [1] was “Active”.
For `Cc1ccc(-c2noc(-c3cccc4c(=O)c(C)c(-c5ccccc5)oc34)n2)cc1`, the Activity [2] was 22.4% and the inhibition [1] was “Active”.
With `COc1cccc(-c2noc(-c3cccc4c(=O)c(C)c(-c5ccccc5)oc34)n2)c1` the Activity [2] was 22.4% and the inhibition [1] was “inactive”.
In the case of `Cc1c(-c2ccccc2)oc2c(-c3nc(-c4ccccc4Br)no3)cccc2c1=O`, the Activity [2] is reported as 41.6% and the inhibition [1] is reported as “Active”.
In the case of `Cc1c(-c2ccccc2)oc2c(-c3nc(-c4cccc(F)c4)no3)cccc2c1=O`, the Activity [2] is reported as 22.4% and the inhibition [1] is reported as “Active”.
`Cc1c(-c2ccccc2)oc2c(-c3nc(-c4ccc(Br)cc4)no3)cccc2c1=O` was tested, and the Activity [2] was 41.6%, the inhibition [1] was “Active” and the Activity [3] was “Non-Toxic”.
In the case of `Cc1c(-c2ccccc2)oc2c(-c3nc(-c4cccc(Br)c4)no3)cccc2c1=O`, the Activity [2] is reported as 41.6%, the inhibition [1] is reported as “Active” and the Activity [3] is reported as “Non-Toxic”.
With `COc1ccccc1-c1noc(-c2cccc3c(=O)c(C)c(-c4ccccc4)oc23)n1` the Activity [2] was 41.6% and the inhibition [1] was “inactive”.
